Square brackets hold non-standard residues; d marks the D form. Peptide text beside a SMILES is read from it. * marks the point of attachment. ξ: configuration not given here. ξF = NC(Cc1ccccc1)C(=O)O; Cbz = O=C(OCc1ccccc1)*; CHN2 = [N-]=[N+]=C*

The assay concerns SARS-CoV-2. Put plainly: Determination of antiviral efficacy in high-content imaging assay in Vero E6 cells infected with SARS-CoV-2 (USA-WA1/2020 isolate) at MOI 0.75 after 24 hrs. The conditions noted are these: Severe acute respiratory syndrome coronavirus 2, Vero C1008, 24 h. It is filed as functional, organism-based, Chlorocebus sabaeus.
For `Fc1ccc(-c2ccc(CN3CCN(c4cccc5ccoc45)CC3)[nH]2)cc1` [ELOPIPRAZOLE], the EC50 was found to be 1100 nM. Regarding `CCNC/C=C\CNCCCCNCCCCNC/C=C\CNCC`, the EC50 worked out at 250 nM. For the compound `CC(C)(C)NCc1ccc(Nc2ccnc3cc(Cl)ccc23)cc1O` [GSK-369796], it took 1200 nM to reach a half-maximal effect (EC50).

For `CC(C)[C@H](NC(=O)OCc1ccccc1)C(=O)NC(C=O)Cc1ccccc1` (stereo partly drawn) (Cbz-Val-[ξF]-aldehyde), the response was half-maximal at 220 nM (EC50). Compound `C1=C(c2ccc(CN3CCCCC3)cc2)N2CCN=C2c2ccccc21` had an EC50 of 750 nM. In turn, `C[C@@H]1CS/C(=N\NC(=O)C(=O)[C@@H](NC(=O)C2CCCCCC2)C2CCOCC2)N1C` returned an EC50 of 500 nM. For `C[C@@H]1CN(c2ncc(C(O)CO)cc2Cl)CCN1c1nc2c(-c3cc(F)c(F)c(F)c3)cc(C(F)(F)F)cc2[nH]1` (stereo partly specified) the value was 950 nM; for `CC[C@H](NC(=O)[C@H](CS(=O)(=O)CC1CC1)N[C@@H](c1ccc(F)cc1)C(F)(F)F)C(=O)C(=O)NC1CC1`, 300 nM; for `COc1ccc2cc1Oc1ccc(cc1)C[C@H]1c3cc(c(OC)cc3CCN1C)Oc1c(OC)c(OC)cc3c1[C@H](C2)N(C)CC3` [FANCHININ], 1100 nM.

The compound `CC(C)(O)c1ccc2c(c1)/C(=C/CCN1CC[C@](O)(c3ccc(Cl)cc3)C(C)(C)C1)c1cccnc1CO2` showed an EC50 of 140 nM. For `CN(C)CCn1c(C(=O)N2CCN(c3ccccc3Cl)CC2)c(C(c2ccc(O)cc2)c2ccc(O)cc2)c2ccccc21` the value was 1200 nM; for `Cc1cccc(/C=N/Nc2cc(N3CCOCC3)nc(OCCc3ccccn3)n2)c1` [APILIMOD], 23 nM; for `CC(C)CC(NC(=O)OCc1ccccc1)C(=O)NC(C(=O)NCC(=O)C=[N+]=[N-])C(C)C` (stereo not drawn) (Cbz-Leu-Val-Gly-CHN2; configuration not given here), 190 nM.

On to `COc1cc2c(cc1N1C[C@@H](C)N[C@@H](C)C1)N(C(=O)c1ccc(-c3ccc(-c4noc(C)n4)cc3C)cc1)CC2`, for which a half-maximal effect (EC50) was put at 1200 nM. Compound `CCC(CC)COC(=O)[C@H](C)N[P@](=O)(OC[C@H]1O[C@@](C#N)(c2ccc3c(N)ncnn23)[C@H](O)[C@@H]1O)Oc1ccccc1` had an EC50 of 620 nM.

For the compound `COc1cccc2c(N3CCc4ccccc4C3C)nc(Nc3ccc(F)cc3C)nc12` (stereo unspecified), the response was half-maximal at 950 nM (EC50).

As a reminder, the EC50 is the midpoint of the concentration-response curve. A higher EC50 goes with a need for much substance.

These data come from ChEMBL document CHEMBL4303082, “A Large-scale Drug Repositioning Survey for SARS-CoV-2 Antivirals” (2020).
